Assay results from ChEMBL document CHEMBL1201862, “PubChem BioAssay data set” (2004).
One block for each compound: values may come before it. Active and inactive are the calls of the source.

Assays:
[1] = inhibitors of Bluetongue virus cytopathic effect, confirmation, arbovirus, BSR cells (AID 1250); type: functional;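 also: protection from viral cytopathic effect measured as cell viability by ATP luminescence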
HEK293 [2] = assay: cells; type: functional, cell-based; conditions: Homo sapiens
[3] = NIH-3T3 fibroblast cytotoxicity, dose response, cytotoxicity control, cell-based, fluorescence, Alamar Blue, secondary assay (AID 2327); type: functional;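 also: NIH-3T3 mouse fibroblasts cultured with fluconazole at 8 µg/mL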
[4] = Shn3 3'UTR reporter inhibitors, dose response, cell-based, Clone20 osteoblasts, firefly luciferase, cherry-picked (AID 624132); type: functional;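 also: firefly luciferase luminescence from reporter carrying the Shn3 3'UTR in osteoblasts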
[5] = HepG2 cell cytotoxicity, dose response, cytotoxicity control for Shn3 inhibitor project, CellTiter-Glo, cherry-picked (AID 624134); type: functional, cell-based
HEK293 [6] = assay: cells; type: functional, cell-based; conditions: Homo sapiens; remark: listed apart in the source
HEK293 [7] = assay: NOD1 signaling inhibitors, primary screen, cell-based, luminescence, uHTS (AID 1578); type: functional; conditions: Homo sapiens
HEK293 [8] = assay: cells; conditions: Homo sapiens
[9] = target: ATP-dependent molecular chaperone HSP82 (Candida albicans (strain WO-1) (Yeast), UniProt C4YTQ8); assay: loss of DOC-induced GRE-beta-galactosidase reporter signal, dose response, Hsp90 inhibitor project, S. cerevisiae, luminescence (AID 2400); type: functional, cell-based;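 also: beta-galactosidase luminescence from glucocorticoid response element reporter as proxy for Hsp90 function; inhibitor potency where signal loss means Hsp90 inhibition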
[10] = C. albicans growth with fluconazole, confirmation, fluorescence, retest (AID 2467); type: functional, cell-based
HEK293 [11] = assay: NOD2 signaling inhibitors in MDP-stimulated cells, cell-based, uHTS, luminescence (AID 2001); type: functional; conditions: Homo sapiens
HEK293 [12] = assay: cells; type: functional, cell-based; conditions: Homo sapiens; remark: listed apart in the source
[13] = target: T1, Serine/threonine-protein phosphatase (Candida dubliniensis (strain CD36 / CBS 7987 / NCPF 3949 / NRRLY-17841) (Yeast), UniProt B9W6M3); assay: calcineurin pathway inhibitors in yeast reporter, dose response, S. cerevisiae, CDRE-lacZ, luminescence, secondary (AID 2388); type: functional, cell-based;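 also: yeast reporter cells carrying a calcineurin-responsive lacZ construct stimulated with calcium chloride; luminescent beta-galactosidase reporter signal in whole cells rather than isolated phosphatase activity; potency for inhibition where a drop in reporter signal means calcineurin blockade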
T1 sequence (B9W6M3 whole entry): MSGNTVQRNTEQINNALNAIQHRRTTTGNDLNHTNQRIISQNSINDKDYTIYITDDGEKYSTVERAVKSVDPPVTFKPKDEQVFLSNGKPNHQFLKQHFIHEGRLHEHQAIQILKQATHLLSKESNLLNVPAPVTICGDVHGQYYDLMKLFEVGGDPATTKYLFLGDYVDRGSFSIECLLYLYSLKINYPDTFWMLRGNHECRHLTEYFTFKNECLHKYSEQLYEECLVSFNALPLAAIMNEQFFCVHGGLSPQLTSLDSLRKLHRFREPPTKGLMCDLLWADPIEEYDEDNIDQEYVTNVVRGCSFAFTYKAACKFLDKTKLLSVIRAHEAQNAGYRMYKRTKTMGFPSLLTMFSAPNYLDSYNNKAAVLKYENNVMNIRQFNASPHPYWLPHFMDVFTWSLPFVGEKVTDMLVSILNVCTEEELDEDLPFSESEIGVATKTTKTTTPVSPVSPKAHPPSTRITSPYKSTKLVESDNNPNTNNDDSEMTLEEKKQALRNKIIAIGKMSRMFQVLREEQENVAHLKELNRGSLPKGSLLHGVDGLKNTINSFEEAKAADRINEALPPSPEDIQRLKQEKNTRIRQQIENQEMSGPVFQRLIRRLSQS

[14] = control 3'UTR Renilla luciferase suppression, dose response, counter-screen for Shn3 inhibitor project, cell-based, Clone20-Shn3RL, cherry-picked (AID 624133); type: functional
Tumor necrosis factor = Tumor necrosis factor (Homo sapiens, UniProt P01375); assay: TNFa-triggered NF-kB activation inhibitors, SAR follow-up, cell-based, revised (AID 2337); type: functional
[15] = target: Nucleotide-binding oligomerization domain-containing protein 2 (Homo sapiens, UniProt Q9HC29); assay: NOD2 signaling inhibitors, cell-based, luminescence, uHTS, HEK293 (AID 1566); type: functional
[16] = target: T2, Nucleotide-binding oligomerization domain-containing protein 1 (Homo sapiens, UniProt Q9Y239); assay: NOD1 signaling inhibitors, SAR follow-up, revised (AID 2333); type: functional
T2 sequence (Q9Y239 whole entry): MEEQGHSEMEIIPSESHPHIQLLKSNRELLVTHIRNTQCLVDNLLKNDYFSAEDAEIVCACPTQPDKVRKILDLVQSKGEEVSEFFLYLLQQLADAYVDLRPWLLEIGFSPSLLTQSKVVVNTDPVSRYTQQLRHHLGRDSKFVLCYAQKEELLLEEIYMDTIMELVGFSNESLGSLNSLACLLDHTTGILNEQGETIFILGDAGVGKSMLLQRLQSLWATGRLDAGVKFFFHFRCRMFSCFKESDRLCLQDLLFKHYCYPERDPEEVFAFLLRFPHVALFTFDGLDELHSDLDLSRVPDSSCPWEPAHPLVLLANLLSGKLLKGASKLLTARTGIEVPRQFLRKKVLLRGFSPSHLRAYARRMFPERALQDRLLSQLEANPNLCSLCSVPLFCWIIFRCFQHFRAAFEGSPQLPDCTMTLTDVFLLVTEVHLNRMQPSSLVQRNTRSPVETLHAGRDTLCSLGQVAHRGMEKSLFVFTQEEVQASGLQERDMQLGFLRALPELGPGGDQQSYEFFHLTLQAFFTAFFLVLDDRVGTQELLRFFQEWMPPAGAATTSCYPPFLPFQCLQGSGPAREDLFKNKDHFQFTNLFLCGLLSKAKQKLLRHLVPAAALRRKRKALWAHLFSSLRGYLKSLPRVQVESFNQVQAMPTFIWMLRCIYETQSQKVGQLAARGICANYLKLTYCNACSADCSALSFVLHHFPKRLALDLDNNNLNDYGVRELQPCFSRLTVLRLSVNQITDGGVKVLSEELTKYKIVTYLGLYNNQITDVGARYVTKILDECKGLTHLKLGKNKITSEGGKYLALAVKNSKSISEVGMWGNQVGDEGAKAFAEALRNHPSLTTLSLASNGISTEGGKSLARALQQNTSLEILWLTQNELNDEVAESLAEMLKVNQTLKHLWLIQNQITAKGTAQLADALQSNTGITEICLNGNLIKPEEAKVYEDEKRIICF

[17] = target: T3, Calpain-2 catalytic subunit (Sus scrofa, UniProt P43367); assay: pig calpain II inhibitor potency, dose response, biochemical, fluorogenic peptide substrate (AID 1420); type: functional
T3 sequence (P43367 whole entry): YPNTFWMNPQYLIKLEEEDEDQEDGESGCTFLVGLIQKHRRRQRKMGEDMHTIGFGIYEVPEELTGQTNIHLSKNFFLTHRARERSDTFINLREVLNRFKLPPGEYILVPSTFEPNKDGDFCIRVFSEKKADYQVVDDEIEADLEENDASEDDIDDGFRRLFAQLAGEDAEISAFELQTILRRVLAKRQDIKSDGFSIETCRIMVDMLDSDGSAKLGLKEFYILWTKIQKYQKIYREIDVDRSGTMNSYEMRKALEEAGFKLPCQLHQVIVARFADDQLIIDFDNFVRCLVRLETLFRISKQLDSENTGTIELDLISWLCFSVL

[18] = target: T4, Corticotropin-releasing factor receptor 2/Corticotropin-releasing factor-binding protein (Homo sapiens, UniProt P24387+Q13324); assay: activators of CRF receptor 2 with binding protein – uHTS hits, confirmation (AID 602473); type: functional; conditions: read-out: EC50_Mean
T4 sequence (Q13324 whole entry): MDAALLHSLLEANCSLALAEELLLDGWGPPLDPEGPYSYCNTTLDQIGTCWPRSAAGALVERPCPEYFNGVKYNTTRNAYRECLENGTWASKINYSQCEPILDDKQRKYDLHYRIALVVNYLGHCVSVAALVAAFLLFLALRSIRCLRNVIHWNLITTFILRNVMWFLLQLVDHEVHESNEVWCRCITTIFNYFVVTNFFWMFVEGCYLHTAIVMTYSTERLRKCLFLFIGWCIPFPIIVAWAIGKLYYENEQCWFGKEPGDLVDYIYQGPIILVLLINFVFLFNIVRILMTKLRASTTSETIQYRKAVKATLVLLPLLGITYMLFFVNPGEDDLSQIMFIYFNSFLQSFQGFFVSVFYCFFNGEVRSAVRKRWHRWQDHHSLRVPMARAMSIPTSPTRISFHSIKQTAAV
T4 sequence (P24387 whole entry): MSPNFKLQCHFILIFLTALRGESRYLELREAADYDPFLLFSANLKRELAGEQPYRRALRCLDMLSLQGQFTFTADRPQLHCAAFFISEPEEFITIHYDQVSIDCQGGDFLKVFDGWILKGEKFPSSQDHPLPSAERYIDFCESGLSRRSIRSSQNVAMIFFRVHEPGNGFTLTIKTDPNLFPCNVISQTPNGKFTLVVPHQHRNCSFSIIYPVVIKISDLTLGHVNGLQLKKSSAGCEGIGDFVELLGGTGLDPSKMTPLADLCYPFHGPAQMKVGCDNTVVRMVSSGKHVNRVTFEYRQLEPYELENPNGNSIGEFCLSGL

[19] = cytotoxicity in HEK-293T cells, dose response, cytotoxicity control for TCR NF-kB inhibitor project, luminescence, T-cell screen hits (AID 489026); type: functional, cell-based;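 also: cells exposed to compound about 14 hours before the viability readout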
[20] = target: T4, Corticotropin-releasing factor receptor 2/Corticotropin-releasing factor-binding protein; assay: Dose Response confirmation of uHTS hits for small molecule antagonists of the CRF-binding protein and CRF-R2 receptor complex.; type: functional; conditions: read-out: IC50_Mean
Aspartyl aminopeptidase = target: T5, Aspartyl aminopeptidase (Plasmodium falciparum 3D7, UniProt Q8I2J3); assay: Counterscreen for inhibitors of M1 and M17 aminopeptidases: QFRET-based biochemical high throughput dose response assay for inhibitors of the Plasmodium falciparum M18 Aspartyl Aminopeptidase (PFM18AAP). [Related PubChem assays: 1619 (Screening assay (M17LAP inhibitors).), 1445 (Screening assay (M1AAP inhibitors).)]
T5 sequence (Q8I2J3 whole entry): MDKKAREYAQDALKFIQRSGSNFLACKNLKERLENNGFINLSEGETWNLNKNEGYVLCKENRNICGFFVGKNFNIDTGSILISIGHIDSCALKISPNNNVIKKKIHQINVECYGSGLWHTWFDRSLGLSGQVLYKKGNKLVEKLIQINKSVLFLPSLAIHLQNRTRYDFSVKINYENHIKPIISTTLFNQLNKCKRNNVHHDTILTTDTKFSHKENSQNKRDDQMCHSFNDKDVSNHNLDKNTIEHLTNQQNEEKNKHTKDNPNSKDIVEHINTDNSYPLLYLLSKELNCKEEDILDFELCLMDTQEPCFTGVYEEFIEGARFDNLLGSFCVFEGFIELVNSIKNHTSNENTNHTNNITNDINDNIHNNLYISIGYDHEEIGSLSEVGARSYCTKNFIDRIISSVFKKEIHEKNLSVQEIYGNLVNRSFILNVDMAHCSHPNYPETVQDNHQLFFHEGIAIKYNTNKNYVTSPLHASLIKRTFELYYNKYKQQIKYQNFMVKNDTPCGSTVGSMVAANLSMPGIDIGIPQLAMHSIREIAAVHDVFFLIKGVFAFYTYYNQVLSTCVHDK

Leucine aminopeptidase = target: T6, Leucine aminopeptidase (Plasmodium falciparum 3D7, UniProt Q8IL11); assay: P. falciparum M17LAP inhibitors, primary screen, biochemical, fluorogenic H-Leu-NHMec substrate, 1536-well (AID 1619); type: functional
T6 sequence (Q8IL11 whole entry): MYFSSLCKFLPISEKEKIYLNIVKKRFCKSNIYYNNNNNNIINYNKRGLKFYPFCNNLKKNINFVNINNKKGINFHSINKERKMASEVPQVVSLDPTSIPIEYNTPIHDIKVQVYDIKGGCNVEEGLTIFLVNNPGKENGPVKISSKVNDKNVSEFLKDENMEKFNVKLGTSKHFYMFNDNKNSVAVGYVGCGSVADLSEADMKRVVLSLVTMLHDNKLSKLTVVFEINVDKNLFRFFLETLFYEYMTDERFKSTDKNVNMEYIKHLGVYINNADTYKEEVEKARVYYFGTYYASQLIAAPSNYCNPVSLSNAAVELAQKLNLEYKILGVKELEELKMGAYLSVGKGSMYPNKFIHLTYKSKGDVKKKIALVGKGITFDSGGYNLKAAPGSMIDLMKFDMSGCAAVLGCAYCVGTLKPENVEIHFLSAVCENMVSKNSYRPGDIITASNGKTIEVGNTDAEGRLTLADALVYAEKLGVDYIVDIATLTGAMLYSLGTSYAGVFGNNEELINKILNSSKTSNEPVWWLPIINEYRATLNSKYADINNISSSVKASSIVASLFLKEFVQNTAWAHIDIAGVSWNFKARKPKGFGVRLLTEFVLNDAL

Procathepsin L = Procathepsin L (Homo sapiens, UniProt P07711); assay: cathepsin L inhibitors, dose response, counter-screen for M1/M17 aminopeptidase inhibitor project, biochemical, QFRET, 1536-well (AID 2214)
Procathepsin L, sequence (P07711 whole entry): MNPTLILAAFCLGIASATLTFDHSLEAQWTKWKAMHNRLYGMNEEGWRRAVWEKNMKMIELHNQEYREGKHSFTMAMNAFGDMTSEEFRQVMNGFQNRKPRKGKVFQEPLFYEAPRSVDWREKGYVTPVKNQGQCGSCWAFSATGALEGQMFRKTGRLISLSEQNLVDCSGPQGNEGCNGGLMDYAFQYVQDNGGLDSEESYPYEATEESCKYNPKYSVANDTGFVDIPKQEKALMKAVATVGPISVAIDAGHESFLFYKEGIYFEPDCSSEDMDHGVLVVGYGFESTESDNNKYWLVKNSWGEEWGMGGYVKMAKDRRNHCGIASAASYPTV

Tumor necrosis factor, sequence (P01375 whole entry, the tested form may be a part): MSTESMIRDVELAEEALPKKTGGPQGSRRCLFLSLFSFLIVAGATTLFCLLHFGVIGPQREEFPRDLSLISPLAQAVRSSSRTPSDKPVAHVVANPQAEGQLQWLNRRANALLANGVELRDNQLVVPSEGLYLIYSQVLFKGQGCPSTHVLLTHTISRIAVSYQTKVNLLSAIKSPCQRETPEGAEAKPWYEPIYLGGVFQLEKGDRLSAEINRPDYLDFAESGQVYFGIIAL
ATP-dependent molecular chaperone HSP82, sequence (C4YTQ8 whole entry): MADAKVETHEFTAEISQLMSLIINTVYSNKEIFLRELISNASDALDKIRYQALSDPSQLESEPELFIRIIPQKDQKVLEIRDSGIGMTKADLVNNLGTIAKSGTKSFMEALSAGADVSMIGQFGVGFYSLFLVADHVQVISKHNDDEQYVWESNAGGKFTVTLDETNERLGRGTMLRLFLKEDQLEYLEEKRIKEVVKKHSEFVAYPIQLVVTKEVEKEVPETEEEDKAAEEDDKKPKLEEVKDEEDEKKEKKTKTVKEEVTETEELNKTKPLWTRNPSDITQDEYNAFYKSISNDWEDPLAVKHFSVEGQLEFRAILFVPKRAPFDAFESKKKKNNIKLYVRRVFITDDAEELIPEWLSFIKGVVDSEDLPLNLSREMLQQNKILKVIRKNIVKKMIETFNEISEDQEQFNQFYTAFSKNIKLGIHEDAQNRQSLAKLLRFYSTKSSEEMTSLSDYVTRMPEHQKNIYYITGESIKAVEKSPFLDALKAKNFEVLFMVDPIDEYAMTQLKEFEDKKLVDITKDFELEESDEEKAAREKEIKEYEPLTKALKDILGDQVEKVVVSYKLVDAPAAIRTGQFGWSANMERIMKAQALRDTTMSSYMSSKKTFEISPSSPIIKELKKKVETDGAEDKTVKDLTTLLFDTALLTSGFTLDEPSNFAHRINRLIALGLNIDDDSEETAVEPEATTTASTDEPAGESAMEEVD
Nucleotide-binding oligomerization domain-containing protein 2, sequence (Q9HC29 whole entry, the tested form may be a part): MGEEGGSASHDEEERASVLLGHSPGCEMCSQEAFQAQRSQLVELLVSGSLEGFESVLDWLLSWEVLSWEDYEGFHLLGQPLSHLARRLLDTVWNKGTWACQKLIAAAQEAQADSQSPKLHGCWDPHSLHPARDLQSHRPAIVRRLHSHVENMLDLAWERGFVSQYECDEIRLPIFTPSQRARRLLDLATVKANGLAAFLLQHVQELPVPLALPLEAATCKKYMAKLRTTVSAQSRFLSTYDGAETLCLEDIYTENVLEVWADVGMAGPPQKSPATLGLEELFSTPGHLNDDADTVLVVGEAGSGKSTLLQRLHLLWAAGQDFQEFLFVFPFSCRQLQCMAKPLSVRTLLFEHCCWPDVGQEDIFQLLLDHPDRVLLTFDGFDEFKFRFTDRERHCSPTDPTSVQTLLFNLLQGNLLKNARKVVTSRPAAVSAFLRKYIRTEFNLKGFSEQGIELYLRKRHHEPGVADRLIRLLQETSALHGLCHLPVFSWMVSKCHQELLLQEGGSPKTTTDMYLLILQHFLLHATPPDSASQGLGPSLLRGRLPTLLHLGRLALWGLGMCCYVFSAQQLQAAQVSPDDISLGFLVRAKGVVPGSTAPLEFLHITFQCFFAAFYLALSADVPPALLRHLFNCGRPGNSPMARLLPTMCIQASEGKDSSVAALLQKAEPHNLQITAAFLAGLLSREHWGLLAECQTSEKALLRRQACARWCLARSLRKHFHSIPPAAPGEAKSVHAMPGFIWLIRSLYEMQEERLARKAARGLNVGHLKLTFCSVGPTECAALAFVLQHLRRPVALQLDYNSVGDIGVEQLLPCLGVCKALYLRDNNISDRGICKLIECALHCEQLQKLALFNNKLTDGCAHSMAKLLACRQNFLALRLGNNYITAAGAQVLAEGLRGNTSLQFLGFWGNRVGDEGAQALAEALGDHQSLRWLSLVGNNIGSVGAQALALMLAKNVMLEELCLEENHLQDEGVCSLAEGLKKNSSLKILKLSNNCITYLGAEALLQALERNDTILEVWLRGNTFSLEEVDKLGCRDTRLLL

- IC50 [1]: 29 µM (active)
Structure (SMILES): CC1CCCCN1c1nnc(NC(=O)c2cc(-c3ccc(Br)cc3)on2)s1 (stereo unspecified)

Structure (SMILES): O=C(c1ccc(Cn2c(=S)[nH]c3ccccc3c2=O)cc1)N1CCN(c2ccccn2)CC1
- IC50 (HEK293 [2]): 6.05 µM (active)
- EC50 [3]: 12.4 µM (inconclusive)
- AC50 [4]: 6.34 µM (active)
- AC50 [5]: 59.2 µM (active)
- IC50 (HEK293 [6]): > 20 µM (inactive)
- EC50 (HEK293 [7]): 9 µM (active)
- IC50 (HEK293 [8]): 12.6 µM (active)
- EC50 [9]: > 150 µM (inactive)
- EC50 [10]: 0.549 µM (active)
- IC50 (HEK293 [11]): 7.1 µM (active)
- IC50 (HEK293 [12]): 13.9 µM (active)
- EC50 [13]: > 180 µM (inactive)
- AC50 [14]: 31.4 µM (active)
- IC50 (Tumor necrosis factor): 7.61 µM (active)
- EC50 [15]: 5.49 µM (active)
- IC50 [16]: 5.3 µM (active)

Structure (SMILES): O=C(Nc1ccc(Oc2cccnc2)nc1)c1ccc(C(F)(F)F)cc1
- IC50 [17]: 48.1 µM (not active)
- EC50 [18]: > 53 µM (inactive)
- IC50 (HEK293 [2]): 4.32 µM (active)
- IC50 (HEK293 [6]): > 20 µM (inactive)
- EC50 (HEK293 [7]): 2.4 µM (active)
- IC50 (HEK293 [8]): > 20 µM (inactive)
- IC50 (HEK293 [11]): 8.57 µM (active)
- IC50 [19]: > 80 µM (inactive)
- IC50 (Tumor necrosis factor): 2.79 µM (active)
- IC50 [20]: > 47.1 µM (inactive)
- IC50 [16]: 2.26 µM (active)

- IC50 (Aspartyl aminopeptidase): > 73.5 µM (not active)
- IC50 (Leucine aminopeptidase): 6.03 µM (active)
- IC50 (Procathepsin L): > 59.6 µM (not active)
Structure (SMILES): O=C(CSc1nccc(=O)[nH]1)Nc1ccc(F)c(Cl)c1
